Values quoted from earlier work in paper PMC4128962 (Journal of controlled release : official journal of the …, 2013).

Hyaluronic acid [HA]
pKa: about 3.0
